Data taken from ChEMBL document CHEMBL4507257, “Data for DCP probe ABT-100” (2021).

What was measured:
[1] = system: Epidermal growth factor receptor (Homo sapiens), P00533 [L861Q]; conditions: Compound concentration 1000.0 nM
[2] = target: Atypical kinase COQ8A, mitochondrial (Homo sapiens) (UniProt Q8NI60); conditions: Compound concentration 1000.0 nM
[3] = target: RAC-beta serine/threonine-protein kinase (Homo sapiens) (UniProt P31751); conditions: Compound concentration 1000.0 nM
[4] = system: ALK tyrosine kinase receptor (Homo sapiens), Q9UM73 [L1196M]; conditions: Compound concentration 1000.0 nM
[5] = target: Calcium/calmodulin-dependent protein kinase type IV (Homo sapiens) (UniProt Q16566); conditions: Compound concentration 1000.0 nM
[6] = target: Fibroblast growth factor receptor 1 (Homo sapiens) (UniProt P11362); conditions: Compound concentration 1000.0 nM
[7] = target: Ribosomal protein S6 kinase alpha-1 (Homo sapiens) (UniProt Q15418); conditions: Compound concentration 1000.0 nM
[8] = target: Serine/threonine-protein kinase TAO3 (Homo sapiens) (UniProt Q9H2K8); conditions: Compound concentration 1000.0 nM
[9] = target: Serine/threonine-protein kinase MAK (Homo sapiens) (UniProt P20794); conditions: Compound concentration 1000.0 nM
[10] = target: Cyclin-dependent kinase 3 (Homo sapiens) (UniProt Q00526); conditions: Compound concentration 1000.0 nM
[11] = target: Serine/threonine-protein kinase 32B (Homo sapiens) (UniProt Q9NY57); conditions: Compound concentration 1000.0 nM
[12] = target: Death-associated protein kinase 3 (Homo sapiens) (UniProt O43293); conditions: Compound concentration 1000.0 nM
[13] = system: Phosphatidylinositol 4,5-bisphosphate 3-kinase catalytic subunit alpha isoform (Homo sapiens), P42336 [E542K]; conditions: Compound concentration 1000.0 nM
[14] = target: Non-receptor tyrosine-protein kinase TYK2 (Homo sapiens) (UniProt P29597); conditions: Compound concentration 1000.0 nM
[15] = target: Serine/threonine-protein kinase Sgk2 (Homo sapiens) (UniProt Q9HBY8); conditions: Compound concentration 1000.0 nM
[16] = target: Myosin light chain kinase 2, skeletal/cardiac muscle (Homo sapiens) (UniProt Q9H1R3); conditions: Compound concentration 1000.0 nM
[17] = system: Mast/stem cell growth factor receptor Kit (Homo sapiens), P10721 [V559D,T670I]; conditions: Compound concentration 1000.0 nM
[18] = target: Muscle, skeletal receptor tyrosine-protein kinase (Homo sapiens) (UniProt O15146); conditions: Compound concentration 1000.0 nM
[19] = target: TGF-beta receptor type-1 (Homo sapiens) (UniProt P36897); conditions: Compound concentration 1000.0 nM
[20] = target: Dual specificity mitogen-activated protein kinase kinase 5 (Homo sapiens) (UniProt Q13163); conditions: Compound concentration 1000.0 nM
[21] = target: Tyrosine-protein kinase Tec (Homo sapiens) (UniProt P42680); conditions: Compound concentration 1000.0 nM
[22] = target: Ribosomal protein S6 kinase alpha-1 (Homo sapiens) (UniProt Q15418); conditions: Compound concentration 1000.0 nM; remark: listed apart in the source
[23] = system: Tyrosine-protein kinase ABL1 (Homo sapiens), P00519 [H396P]; conditions: Compound concentration 1000.0 nM
[24] = target: Serine/threonine-protein kinase 38 (Homo sapiens) (UniProt Q15208); conditions: Compound concentration 1000.0 nM
[25] = target: NT-3 growth factor receptor (Homo sapiens) (UniProt Q16288); conditions: Compound concentration 1000.0 nM
[26] = target: Activin receptor type-1-like (Homo sapiens) (UniProt P37023); conditions: Compound concentration 1000.0 nM
[27] = target: Cyclin-dependent kinase 15 (Homo sapiens) (UniProt Q96Q40); conditions: Compound concentration 1000.0 nM
[28] = target: Serine/threonine-protein kinase SIK2 (Homo sapiens) (UniProt Q9H0K1); conditions: Compound concentration 1000.0 nM
[29] = target: Wee1-like protein kinase (Homo sapiens) (UniProt P30291); conditions: Compound concentration 1000.0 nM
[30] = target: Dual specificity testis-specific protein kinase 1 (Homo sapiens) (UniProt Q15569); conditions: Compound concentration 1000.0 nM
[31] = target: Serine/threonine-protein kinase MRCK alpha (Homo sapiens) (UniProt Q5VT25); conditions: Compound concentration 1000.0 nM
[32] = target: Protein kinase C iota type (Homo sapiens) (UniProt P41743); conditions: Compound concentration 1000.0 nM
[33] = target: Serine/threonine-protein kinase TBK1 (Homo sapiens) (UniProt Q9UHD2); conditions: Compound concentration 1000.0 nM
[34] = target: ALK tyrosine kinase receptor (Homo sapiens) (UniProt Q9UM73); conditions: Compound concentration 1000.0 nM
[35] = target: Tyrosine-protein kinase ZAP-70 (Homo sapiens) (UniProt P43403); conditions: Compound concentration 1000.0 nM
[36] = target: Tyrosine-protein kinase receptor Tie-1 (Homo sapiens) (UniProt P35590); conditions: Compound concentration 1000.0 nM
[37] = target: Serine/threonine-protein kinase N1 (Homo sapiens) (UniProt Q16512); conditions: Compound concentration 1000.0 nM
[38] = system: ALK tyrosine kinase receptor (Homo sapiens), Q9UM73 [C1156Y]; conditions: Compound concentration 1000.0 nM
[39] = system: Mast/stem cell growth factor receptor Kit (Homo sapiens), P10721 [D816V]; conditions: Compound concentration 1000.0 nM
[40] = target: Phosphatidylinositol 3-kinase C2 domain-containing subunit gamma (Homo sapiens) (UniProt O75747); conditions: Compound concentration 1000.0 nM
[41] = system: Fibroblast growth factor receptor 3 (Homo sapiens), P22607 [G697C]; conditions: Compound concentration 1000.0 nM
[42] = target: Cyclin-dependent kinase 18 (Homo sapiens) (UniProt Q07002); conditions: Compound concentration 1000.0 nM
[43] = target: Non-receptor tyrosine-protein kinase TYK2 (Homo sapiens) (UniProt P29597); conditions: Compound concentration 1000.0 nM; remark: listed apart in the source
[44] = target: Alpha-1B adrenergic receptor (Homo sapiens) (UniProt P35368); conditions: Compound concentration 10.0 uM
[45] = target: Tyrosine-protein kinase BTK (Homo sapiens) (UniProt Q06187); conditions: Compound concentration 1000.0 nM

Sequence of Non-receptor tyrosine-protein kinase TYK2 (Homo sapiens) (P29597 whole entry): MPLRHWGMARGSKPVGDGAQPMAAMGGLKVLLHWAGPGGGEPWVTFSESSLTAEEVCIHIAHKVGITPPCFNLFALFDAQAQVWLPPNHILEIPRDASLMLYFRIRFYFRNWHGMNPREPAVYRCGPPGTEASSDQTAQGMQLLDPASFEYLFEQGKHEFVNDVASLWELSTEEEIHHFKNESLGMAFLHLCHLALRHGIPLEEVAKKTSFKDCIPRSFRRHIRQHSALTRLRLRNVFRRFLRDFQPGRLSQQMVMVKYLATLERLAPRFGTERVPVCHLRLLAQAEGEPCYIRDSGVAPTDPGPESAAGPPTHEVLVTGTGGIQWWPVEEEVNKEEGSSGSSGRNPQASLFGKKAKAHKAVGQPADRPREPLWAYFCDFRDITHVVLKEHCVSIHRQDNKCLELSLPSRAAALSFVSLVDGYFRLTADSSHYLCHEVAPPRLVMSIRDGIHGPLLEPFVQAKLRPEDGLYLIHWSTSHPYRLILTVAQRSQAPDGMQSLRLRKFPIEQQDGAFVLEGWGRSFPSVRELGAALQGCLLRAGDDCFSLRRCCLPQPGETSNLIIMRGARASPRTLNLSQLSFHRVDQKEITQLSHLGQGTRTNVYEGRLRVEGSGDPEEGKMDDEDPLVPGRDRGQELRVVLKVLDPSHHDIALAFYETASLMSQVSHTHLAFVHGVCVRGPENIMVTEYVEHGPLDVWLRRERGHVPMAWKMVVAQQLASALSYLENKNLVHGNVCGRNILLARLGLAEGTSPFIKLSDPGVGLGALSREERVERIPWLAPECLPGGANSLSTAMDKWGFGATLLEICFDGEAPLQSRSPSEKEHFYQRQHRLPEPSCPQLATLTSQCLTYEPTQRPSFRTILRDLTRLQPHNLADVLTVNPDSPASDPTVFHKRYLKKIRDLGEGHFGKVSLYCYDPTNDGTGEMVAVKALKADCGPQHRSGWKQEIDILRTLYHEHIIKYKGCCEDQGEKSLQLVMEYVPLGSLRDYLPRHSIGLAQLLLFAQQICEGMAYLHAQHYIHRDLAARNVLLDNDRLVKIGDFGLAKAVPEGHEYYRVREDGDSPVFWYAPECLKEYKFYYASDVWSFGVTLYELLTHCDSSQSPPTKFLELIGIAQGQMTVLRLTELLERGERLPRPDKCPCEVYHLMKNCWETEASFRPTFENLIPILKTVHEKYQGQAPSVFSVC
Sequence of Ribosomal protein S6 kinase alpha-1 (Homo sapiens) (Q15418 whole entry): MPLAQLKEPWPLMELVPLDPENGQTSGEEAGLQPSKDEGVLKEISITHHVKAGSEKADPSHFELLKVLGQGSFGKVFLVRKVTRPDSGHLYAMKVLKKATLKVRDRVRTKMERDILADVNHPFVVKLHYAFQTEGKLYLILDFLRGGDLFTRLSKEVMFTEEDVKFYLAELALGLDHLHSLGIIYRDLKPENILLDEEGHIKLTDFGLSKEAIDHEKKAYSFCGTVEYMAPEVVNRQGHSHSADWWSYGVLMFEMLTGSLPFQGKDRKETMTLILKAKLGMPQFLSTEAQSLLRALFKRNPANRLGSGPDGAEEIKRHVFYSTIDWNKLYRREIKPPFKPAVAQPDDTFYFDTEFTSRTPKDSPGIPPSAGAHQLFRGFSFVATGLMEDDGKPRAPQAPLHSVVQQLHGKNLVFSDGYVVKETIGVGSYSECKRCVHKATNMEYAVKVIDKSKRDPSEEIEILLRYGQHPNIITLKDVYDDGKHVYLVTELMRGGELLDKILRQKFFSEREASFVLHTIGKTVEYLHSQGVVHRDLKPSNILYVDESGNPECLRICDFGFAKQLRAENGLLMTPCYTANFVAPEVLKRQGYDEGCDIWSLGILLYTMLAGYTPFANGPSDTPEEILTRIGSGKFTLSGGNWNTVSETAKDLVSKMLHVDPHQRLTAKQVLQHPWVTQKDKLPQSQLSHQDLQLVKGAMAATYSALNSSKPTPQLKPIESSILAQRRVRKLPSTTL
Sequence of Serine/threonine-protein kinase 38 (Homo sapiens) (Q15208 2-465 limits assumed): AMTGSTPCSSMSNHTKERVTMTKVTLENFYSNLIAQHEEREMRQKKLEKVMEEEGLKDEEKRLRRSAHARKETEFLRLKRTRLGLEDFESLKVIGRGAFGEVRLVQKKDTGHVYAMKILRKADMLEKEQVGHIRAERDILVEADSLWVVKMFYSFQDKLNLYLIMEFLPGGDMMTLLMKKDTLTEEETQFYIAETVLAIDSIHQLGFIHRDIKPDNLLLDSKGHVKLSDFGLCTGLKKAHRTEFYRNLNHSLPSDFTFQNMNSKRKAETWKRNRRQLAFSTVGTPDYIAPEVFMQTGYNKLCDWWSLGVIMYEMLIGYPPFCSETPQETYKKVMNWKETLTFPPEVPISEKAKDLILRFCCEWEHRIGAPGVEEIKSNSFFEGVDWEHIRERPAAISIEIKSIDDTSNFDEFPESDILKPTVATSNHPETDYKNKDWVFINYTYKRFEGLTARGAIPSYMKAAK
Sequence of Calcium/calmodulin-dependent protein kinase type IV (Homo sapiens) (Q16566 whole entry): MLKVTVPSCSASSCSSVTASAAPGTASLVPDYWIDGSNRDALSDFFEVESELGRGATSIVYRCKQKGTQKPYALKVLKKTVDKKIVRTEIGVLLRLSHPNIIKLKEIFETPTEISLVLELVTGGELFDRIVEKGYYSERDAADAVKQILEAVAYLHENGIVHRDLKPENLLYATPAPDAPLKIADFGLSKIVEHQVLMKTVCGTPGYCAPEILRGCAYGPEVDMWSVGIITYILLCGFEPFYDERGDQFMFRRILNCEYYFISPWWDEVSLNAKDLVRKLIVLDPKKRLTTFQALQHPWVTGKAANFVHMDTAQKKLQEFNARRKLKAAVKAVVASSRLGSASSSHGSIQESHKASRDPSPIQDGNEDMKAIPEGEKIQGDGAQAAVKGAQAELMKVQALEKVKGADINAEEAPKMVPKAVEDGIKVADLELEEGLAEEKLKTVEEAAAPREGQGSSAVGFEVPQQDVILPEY
Sequence of Serine/threonine-protein kinase SIK2 (Homo sapiens) (Q9H0K1 whole entry, looked up): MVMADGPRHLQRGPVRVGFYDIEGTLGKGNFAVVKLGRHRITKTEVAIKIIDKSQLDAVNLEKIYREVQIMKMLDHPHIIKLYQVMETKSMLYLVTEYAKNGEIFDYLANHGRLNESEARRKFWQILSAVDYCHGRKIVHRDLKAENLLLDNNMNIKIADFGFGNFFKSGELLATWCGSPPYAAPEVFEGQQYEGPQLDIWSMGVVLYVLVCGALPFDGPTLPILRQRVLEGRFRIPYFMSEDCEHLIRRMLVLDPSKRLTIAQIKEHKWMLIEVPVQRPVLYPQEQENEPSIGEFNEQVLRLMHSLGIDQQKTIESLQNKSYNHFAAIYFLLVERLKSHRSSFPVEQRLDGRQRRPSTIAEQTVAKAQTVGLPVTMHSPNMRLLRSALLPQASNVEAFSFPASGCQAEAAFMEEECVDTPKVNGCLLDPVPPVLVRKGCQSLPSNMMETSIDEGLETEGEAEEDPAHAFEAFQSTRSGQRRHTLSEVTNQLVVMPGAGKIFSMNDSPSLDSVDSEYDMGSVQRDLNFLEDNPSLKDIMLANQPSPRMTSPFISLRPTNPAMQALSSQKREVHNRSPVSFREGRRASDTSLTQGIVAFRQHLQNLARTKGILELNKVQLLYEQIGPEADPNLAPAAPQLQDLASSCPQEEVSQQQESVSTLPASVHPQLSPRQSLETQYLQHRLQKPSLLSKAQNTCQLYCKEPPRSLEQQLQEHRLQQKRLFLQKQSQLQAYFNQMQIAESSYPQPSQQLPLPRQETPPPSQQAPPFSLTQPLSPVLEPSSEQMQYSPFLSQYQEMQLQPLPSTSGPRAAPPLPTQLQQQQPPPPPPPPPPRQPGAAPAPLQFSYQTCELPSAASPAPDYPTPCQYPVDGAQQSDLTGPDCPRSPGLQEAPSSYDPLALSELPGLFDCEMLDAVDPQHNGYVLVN
Sequence of Serine/threonine-protein kinase Sgk2 (Homo sapiens) (Q9HBY8 whole entry): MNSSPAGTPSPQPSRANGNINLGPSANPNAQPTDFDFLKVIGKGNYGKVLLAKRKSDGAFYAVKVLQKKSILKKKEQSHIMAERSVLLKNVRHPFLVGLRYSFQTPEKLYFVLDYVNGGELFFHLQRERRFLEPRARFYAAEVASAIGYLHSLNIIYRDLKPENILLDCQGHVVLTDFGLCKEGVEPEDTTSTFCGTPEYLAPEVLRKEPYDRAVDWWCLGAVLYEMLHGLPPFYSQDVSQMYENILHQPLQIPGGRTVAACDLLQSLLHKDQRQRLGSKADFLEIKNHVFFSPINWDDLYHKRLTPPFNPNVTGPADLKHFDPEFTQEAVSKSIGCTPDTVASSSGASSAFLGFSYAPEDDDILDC
Sequence of Atypical kinase COQ8A, mitochondrial (Homo sapiens) (Q8NI60 163-647 limits assumed): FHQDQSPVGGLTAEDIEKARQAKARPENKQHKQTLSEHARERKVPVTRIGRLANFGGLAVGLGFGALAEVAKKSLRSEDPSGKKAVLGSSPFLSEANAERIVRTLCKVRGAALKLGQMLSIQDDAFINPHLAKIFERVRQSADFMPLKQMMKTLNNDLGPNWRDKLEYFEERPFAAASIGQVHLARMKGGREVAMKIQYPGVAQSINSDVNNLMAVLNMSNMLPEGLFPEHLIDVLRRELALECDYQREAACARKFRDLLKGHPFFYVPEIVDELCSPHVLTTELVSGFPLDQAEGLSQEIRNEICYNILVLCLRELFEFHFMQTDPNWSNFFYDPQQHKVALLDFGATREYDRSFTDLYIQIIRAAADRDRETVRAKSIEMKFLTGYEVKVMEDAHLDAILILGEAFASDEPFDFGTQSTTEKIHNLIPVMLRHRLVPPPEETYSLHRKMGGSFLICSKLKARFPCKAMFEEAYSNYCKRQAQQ
Sequence of Cyclin-dependent kinase 3 (Homo sapiens) (Q00526 whole entry, looked up): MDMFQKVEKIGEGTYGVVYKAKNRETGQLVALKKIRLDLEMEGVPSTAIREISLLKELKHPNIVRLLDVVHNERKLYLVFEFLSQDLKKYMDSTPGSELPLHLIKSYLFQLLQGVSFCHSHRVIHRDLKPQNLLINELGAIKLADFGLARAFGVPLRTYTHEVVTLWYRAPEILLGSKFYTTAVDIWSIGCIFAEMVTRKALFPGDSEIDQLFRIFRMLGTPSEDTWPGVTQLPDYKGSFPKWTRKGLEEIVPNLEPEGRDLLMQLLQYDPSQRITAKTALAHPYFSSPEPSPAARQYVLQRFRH

Cn1cncc1[C@@](O)(COc1ccc(C#N)cc1-c1ccc(OC(F)(F)F)cc1)c1ccc(C#N)cc1 [A-108]
inactive: residual activity [1] 100% | residual activity [2] 100% | residual activity [3] 78% | residual activity [4] 100% | residual activity [5] 100% | residual activity [6] 100% | residual activity [7] 72% | residual activity [8] 100% | residual activity [9] 99% | residual activity [10] 100% | residual activity [11] 97% | residual activity [12] 100% | residual activity [13] 81% | residual activity [14] 92% | residual activity [15] 100% | residual activity [16] 100% | residual activity [17] 82% | residual activity [18] 100% | residual activity [19] 78% | residual activity [20] 88% | residual activity [21] 100% | residual activity [22] 100% | residual activity [23] 92% | residual activity [24] 100% | residual activity [25] 99% | residual activity [26] 100% | residual activity [27] 100% | residual activity [28] 100% | residual activity [29] 100% | residual activity [30] 92% | residual activity [31] 81% | residual activity [32] 100% | residual activity [33] 100% | residual activity [34] 70% | residual activity [35] 100% | residual activity [36] 100% | residual activity [37] 100% | residual activity [38] 98% | residual activity [39] 100% | residual activity [40] 61% | residual activity [41] 97% | residual activity [42] 100% | residual activity [43] 100% | inhibition [44] 5.97% | residual activity [45] 82%

Cn1cncc1[C@](O)(COc1ccc(C#N)cc1-c1ccc(OC(F)(F)F)cc1)c1ccc(C#N)cc1 [ABT-100]
inactive: residual activity [1] 71% | residual activity [2] 92% | residual activity [3] 81% | residual activity [4] 100% | residual activity [5] 100% | residual activity [6] 62% | residual activity [7] 89% | residual activity [8] 87% | residual activity [9] 100% | residual activity [10] 71% | residual activity [11] 100% | residual activity [12] 88% | residual activity [13] 80% | residual activity [14] 56% | residual activity [15] 100% | residual activity [16] 78% | residual activity [17] 84% | residual activity [18] 93% | residual activity [19] 81% | residual activity [20] 83% | residual activity [21] 93% | residual activity [22] 100% | residual activity [23] 100% | residual activity [24] 75% | residual activity [25] 80% | residual activity [26] 100% | residual activity [27] 59% | residual activity [28] 95% | residual activity [29] 100% | residual activity [30] 100% | residual activity [31] 78% | residual activity [32] 100% | residual activity [33] 100% | residual activity [34] 100% | residual activity [35] 78% | residual activity [36] 85% | residual activity [37] 100% | residual activity [38] 92% | residual activity [39] 85% | residual activity [40] 81% | residual activity [41] 60% | residual activity [42] 90% | residual activity [43] 100% | inhibition [44] 16.6% | residual activity [45] 92%
